Laboratory results: patent US20210207188A1, “BETA-LACTAM COMPOUNDS AND METHODS OF USE THEREOF” (priority 2018, published 2021)

Tests used:
IMP-1 = molecular target: T1, IMP-1 (Serratia marcescens, UniProt P52699); format: biochemical; settings: IMP-1
T1 construct: His tag; made in house; host or cells: Escherichia coli
Procedure: (§1) Recombinant his-tagged beta-lactamases, including NDM-1, IMP-1, KPC-2, VIM-2 and OXA-48 were overexpressed in Escherichia coli. The enzymes were purified using HisTrap Ni-NTA columns. AmpC and TEM were purchased from commercial sources.
(§2) The fluorescence-based activity assays were performed in phosphate-buffer saline. The concentration of some of the compounds were determined by boiling the compounds in PBS solution until fluorescence signal was saturated. The amount of released fluorophore was quantified via fluorescence spectroscopy by comparing to a corresponding calibration curve.

KPC-2 = molecular target: T2, KPC-2 (Klebsiella pneumoniae, UniProt Q9F663); format: biochemical
T2 construct: His tag; made in house; host or cells: Escherichia coli
T2 sequence (Q9F663 25-293 limits assumed): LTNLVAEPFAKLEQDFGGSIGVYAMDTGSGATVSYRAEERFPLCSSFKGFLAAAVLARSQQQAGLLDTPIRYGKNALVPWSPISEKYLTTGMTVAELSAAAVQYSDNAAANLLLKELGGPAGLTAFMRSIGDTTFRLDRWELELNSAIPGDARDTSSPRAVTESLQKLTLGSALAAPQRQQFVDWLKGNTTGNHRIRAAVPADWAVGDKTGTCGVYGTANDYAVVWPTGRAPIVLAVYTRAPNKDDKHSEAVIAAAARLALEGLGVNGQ
Procedure: as §1, §2

NDM-1 = molecular target: T3, NDM-1 (Klebsiella pneumoniae, UniProt C7C422); format: biochemical
T3 construct: His tag; made in house; host or cells: Escherichia coli
T3 sequence (C7C422 29-270 limits assumed): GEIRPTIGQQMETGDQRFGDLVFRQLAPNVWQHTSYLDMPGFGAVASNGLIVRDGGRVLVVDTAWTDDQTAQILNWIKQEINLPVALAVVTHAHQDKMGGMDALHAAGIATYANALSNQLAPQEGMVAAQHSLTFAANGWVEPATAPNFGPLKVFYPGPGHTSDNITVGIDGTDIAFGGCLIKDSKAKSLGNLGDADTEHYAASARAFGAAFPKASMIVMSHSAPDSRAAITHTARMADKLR
Procedure: as §1, §2

OXA-48 = molecular target: T4, OXA-48 (Klebsiella pneumoniae, UniProt Q6XEC0); format: biochemical
T4 construct: His tag; made in house; host or cells: Escherichia coli
T4 sequence (Q6XEC0 23-265 limits assumed): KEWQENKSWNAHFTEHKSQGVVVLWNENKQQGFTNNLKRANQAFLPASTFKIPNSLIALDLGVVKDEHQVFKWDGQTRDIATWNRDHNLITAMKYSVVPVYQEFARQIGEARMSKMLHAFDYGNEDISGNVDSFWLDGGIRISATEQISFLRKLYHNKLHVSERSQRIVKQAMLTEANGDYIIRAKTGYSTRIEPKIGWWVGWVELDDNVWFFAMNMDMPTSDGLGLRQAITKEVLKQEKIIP
Procedure: as §1, §2

VIM-2 = molecular target: T5, VIM-2 (Escherichia coli, UniProt Q5U7L7); format: biochemical
T5 construct: His tag; made in house; host or cells: Escherichia coli
Procedure: as §1, §2

AmpC = assay: Activity of beta-lactamases towards probes (fluorescence-based activity assay), AmpC; format: biochemical; settings: probe 2.0 μM (MCW-002 1.1 μM, MCW-011 0.5 μM), PBS
Procedure: as §1, §2

TEM = molecular target: T6, TEM (Escherichia coli, UniProt P62593); assay: Activity of beta-lactamases towards probes (fluorescence-based activity assay), TEM; format: biochemical; settings: probe 2.0 μM (MCW-002 1.1 μM, MCW-011 0.5 μM), PBS
T6 construct: purchased
T6 sequence (P62593 24-286 limits assumed): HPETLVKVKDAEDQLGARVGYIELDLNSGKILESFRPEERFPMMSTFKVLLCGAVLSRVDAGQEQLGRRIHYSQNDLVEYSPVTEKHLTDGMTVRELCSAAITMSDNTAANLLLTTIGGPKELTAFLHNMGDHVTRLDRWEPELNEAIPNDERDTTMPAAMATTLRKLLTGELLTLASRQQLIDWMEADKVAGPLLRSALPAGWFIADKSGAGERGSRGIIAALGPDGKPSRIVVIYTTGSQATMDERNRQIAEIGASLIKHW
Procedure: as §1, §2

[1] = test system: beta-lactamases, including NDM-1, IMP-1, VIM-2, KPC-2, OXA-48, AmpC, and TEM; assay: Fluorescence-based activity assay, whole panel of tested beta-lactamases; format: biochemical; settings: conclusion from fluorescence signals
Procedure: as §1, §2
Among the tested beta-lactamases, NDM-1, IMP-1, VIM-2, KPC-2 and OXA-48 are carbapenemases, whereas AmpC and TEM are not. Nitrocefin was used as a control to test the activity of the beta-lactamases because it can be hydrolyzed by a wide range of beta-lactamases.

[2] = test system: clinical isolates (CPE, Carbapenemase Producing Enterobacteriaceae, and Non CPE strains); assay: Selectivity of probes with clinical isolates in lysis buffer (visible light and UV light); format: cell-based; settings: probe 10 μM
Procedure: The selectivity of some probes were evaluated with clinical isolates. The carbapenemases presence in the bacteria (CPE, i.e., Carbapenemase Producing Enterobacteriaceae) were verified by PCR (Polymerase Chain Reaction). 1 μL loop-full of each test bacterium from overnight-cultured LB agar plate were added to 100 μL PBS buffer with 0.5% CHAPS. The bacteria were vortexed to give a homogenious suspension and incubated for 15 min. To each of the bacteria-lysis buffer mixture (20 μL) were added quick test reagents (Probes (Final concentration=10 μM), CarbaNP solution A and CarbaNP solution B). CarbaNP solutions A and B were freshly prepared according to CLSI protocol, where solution A contains 10 mM zinc sulphate and phenol red buffer at pH=7.8±0.1 and solution B was a mixture of solution A with 3 mg/mL imipenem.

[3] = probe 2.0 μM (MCW-002 1.1 μM, MCW-011 0.5 μM), PBS
[4] = probe 2.0 μM (MCW-011 0.5 μM), PBS

T1 sequence (P52699 19-246 limits assumed): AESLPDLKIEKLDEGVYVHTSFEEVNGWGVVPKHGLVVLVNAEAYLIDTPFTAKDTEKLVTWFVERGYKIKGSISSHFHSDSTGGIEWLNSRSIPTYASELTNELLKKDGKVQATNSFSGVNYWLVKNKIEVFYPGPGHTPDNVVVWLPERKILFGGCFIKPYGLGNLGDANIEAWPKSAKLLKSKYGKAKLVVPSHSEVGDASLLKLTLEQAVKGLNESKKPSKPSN

For `COc1cc(COc2ccc3nc4ccc(=O)cc-4oc3c2)ccc1OC/C=C/C1=C(C(=O)O)N2C(=O)[C@H]([C@@H](C)O)[C@H]2[C@H]1C` [MCW-007, (4S,5R,6S)-6-((R)-1-hydroxyethyl)-3-((E)-3-(2-methoxy-4-(((3-oxo-3H-phenoxazin-7-yl)oxy)methyl)phenoxy)prop-1-en-1-yl)-4-methyl-7-oxo-1-azabicyclo[3.2.0]hept-2-ene-2-carboxylic acid], the “3S/k (detection limit of the probe towards the carbapenemase)” value (IMP-1) was 0.379 pM, the “time until hydrolysis reaction complete (fluorescent signal plateaued)” value (IMP-1; probe 2.0 μM) was ≤ 5 min and the “fluorescence signal over time” value (IMP-1; [3]) was “pronounced increase in the fluorescent signal”. For the same molecule, the Kcat (IMP-1; Michaelis-Menten kinetics) was 116 ± 2.81 s⁻¹, the Km (IMP-1; Michaelis-Menten kinetics) was 1.33 ± 0.08 µM and the “3S/k (detection limit of the probe towards the carbapenemase)” value (KPC-2) was 8.50 pM. For the same molecule, the “relative rate of hydrolysis reaction” value (KPC-2) was “slower compared to the reaction with NDM-1 and IMP-1”, the Kcat (KPC-2; Michaelis-Menten kinetics) was 8.04 ± 1.96 s⁻¹ and the Km (KPC-2; Michaelis-Menten kinetics) was 0.77 ± 0.06 µM. The “fluorescence signal over time” value (KPC-2; [3]) was “pronounced increase in the fluorescent signal”, the “3S/k (detection limit of the probe towards the carbapenemase)” value (NDM-1) was 0.439 pM and the Kcat (NDM-1; Michaelis-Menten kinetics) was 95.1 ± 4.32 s⁻¹. For the same molecule, the Km (NDM-1; Michaelis-Menten kinetics) was 1.56 ± 0.17 µM, the “time until hydrolysis reaction complete (fluorescent signal plateaued)” value (NDM-1; probe 2.0 μM) was ≤ 5 min and the “fluorescence signal over time” value (NDM-1; [3]) was “pronounced increase in the fluorescent signal”. The “3S/k (detection limit of the probe towards the carbapenemase)” value (OXA-48) was 367 pM, the “fluorescence signal over time” value (OXA-48; [4]) was “did not provide significant fluorescence response” and the “3S/k (detection limit of the probe towards the carbapenemase)” value (VIM-2) was 5.22 pM. The “relative rate of hydrolysis reaction” value (VIM-2) was “slower compared to the reaction with NDM-1 and IMP-1”, the Kcat (VIM-2; Michaelis-Menten kinetics) was 6.87 ± 0.11 s⁻¹ and the Km (VIM-2; Michaelis-Menten kinetics) was 0.92 ± 0.04 µM. For the same molecule, the “fluorescence signal over time” value (VIM-2; [4]) was “pronounced increase in the fluorescent signal”, the “fluorescence signal over time” value (AmpC) was “minimal changes in the fluorescent signal” and the “fluorescence signal over time” value (TEM) was “minimal changes in the fluorescent signal”. For the same molecule, the “specificity among the tested beta-lactamases” value [1] was “specific for some carbapenemases”, the “signal with panel of clinical isolates” value ([2]; incubated for 15 min) was “observable colorimetric and fluorescence signal in some CPE strains but not the Non CPE strains” and the “signal with panel of clinical isolates” value ([2]; incubated for 120 min) was “observable colorimetric and fluorescence signal in CPE strains but not the Non CPE strains”.
